Laboratory results taken from US4129737A, “Process for the preparation of an 8-alkyl-5-oxo-5,8-dihydro-pyrido(2,3-d)pyrimidine-6-carboxylic acid” (priority 1972, dated 1978).
Values after ≈ are worked out from the molar mass of the structure shown. Read-outs that look alike come from different tables or passages of the source.

Columns and labels:
[1] = tested on: Bord. bronchiseptica; assay: Minimum inhibitory concentration by agar dilution, Bord. bronchiseptica; type: cell-based; details: Bordetella bronchiseptica, 37° C., 18 hours, read-out: minimum inhibitory concentration (M.I.C.)
Protocol: (§1) (a) Trypticase soya medium (T.S.A.), which is very suitable for culturing the majority of microorganisms; it has the following composition:
(§2) (b) Ordinarily nutrient agar (N.A.), which is less rich in nutrients, corresponds to the following formulation: […]
(§3) Table I gives the minimum inhibitory concentrations (expressed in μg/cm^3) for the various microorganisms tested on each medium.
(§4) The products were tested on three Gram positive microorganisms (1 to 3) […] and on 10 Gram negative microorganisms (4 to 13).
(§5) Table (II) gives the minimum inhibitory concentrations of the compounds of Examples XII to XVI, determined on the agar medium, N.A., and expressed in μg/cm^3.

[2] = tested on: B. pyocyaneus TUR; assay: Minimum inhibitory concentration by agar dilution, B. pyocyaneus TUR; type: cell-based; details: Pseudomonas aeruginosa, 37° C., 18 hours
Protocol: as §1, §2, §3, §4

[3] = tested on: Esch. Coli 95; assay: Minimum inhibitory concentration by agar dilution, Esch. Coli 95; type: cell-based; details: Escherichia coli, 37° C., 18 hours, read-out: minimum inhibitory concentration (M.I.C.)
Protocol: as §1, §2, §3, §4, §5

[4] = tested on: Salm. typhi; assay: Minimum inhibitory concentration by agar dilution, Salm. typhi; type: cell-based; details: Salmonella enterica, 18 h
Protocol: as §1, §2, §3, §4, §5

[5] = tested on: Pr. vulgaris; assay: Minimum inhibitory concentration by agar dilution, Pr. vulgaris; type: cell-based; details: Proteus vulgaris, 37° C., 18 hours, read-out: minimum inhibitory concentration (M.I.C.)
Protocol: as §1, §2, §3, §4, §5

[6] = tested on: Esch 111 B4; assay: Average MIC, solid medium (nutrient agar) dilution method; type: cell-based; details: 18 h, average of five determinations, read-out: minimum inhibitory concentration, average
[7] = tested on: mice; assay: Oral toxicity in mice; type: in vivo; details: doses as high as 4 g per kilogram
[8] = tested on: dog; details: in vivo, 100 mg/kg/day
[9] = Absorption and elimination after oral administration; type: in vivo
[10] = in vivo; details: dog, 2.5 mg/kg
Protocol: In an experiment involving a 20 kg dog, 50 mg of the compound of Example VIII, corresponding to 2.5 mg/kg, were administered by means of a probang. The urine of the animal was removed by catheterisation at the 3rd and at the 7th hour, and the anti-bacterial activity of these samples was measured, taking the compound administered as the reference product.

[11] = tested on: Staphylococcus 9144; assay: Average MIC, solid medium (nutrient agar) dilution method; details: Staphylococcus, 9144, 18 h, read-out: minimum inhibitory concentration, average
[12] = tested on: Staphylococcus SIM; assay: as above; details: 18 h, read-out: minimum inhibitory concentration, average
[13] = tested on: Bord. bronch. 4617; assay: as above; details: 18 h, read-out: minimum inhibitory concentration, average
[14] = tested on: Ps. aeruginosa A22; assay: as above; details: Pseudomonas aeruginosa, A22, 18 h, read-out: minimum inhibitory concentration, average
[15] = tested on: Ps. aeruginosa 72-345; assay: as above; details: Pseudomonas aeruginosa, 72345, 18 h, read-out: minimum inhibitory concentration, average
[16] = tested on: S. enteritidis DANYZ; assay: as above; details: Salmonella enterica, 18 h, read-out: minimum inhibitory concentration, average
[17] = tested on: Pr. mirabilis Nig; assay: as above; details: Proteus mirabilis, 18 h, read-out: minimum inhibitory concentration, average
[18] = N.A. (nutrient agar, pH 6.8), Table I
[19] = T.S.A. (trypticase soya medium, pH 7.3)

## CCn1cc(C(=O)O)c(=O)c2cnc(N3CCNCC3)nc21 [Example VIII, 2-Piperazino-5-oxo-8-ethyl-5,8-dihydro-pyrido(2,3-d)pyrimidine-6-carboxylicacid]
[1]; [18]
  MIC: 12.5 µg/mL (≈ 41.2 µM)
[1]; [19]
  MIC: 50 µg/mL (≈ 165 µM)
[2]; [18]
  MIC: 25 µg/mL (≈ 82.4 µM)
[2]; T.S.A. (trypticase soya medium, pH 7.3), read-out: minimum inhibitory concentration (M.I.C.)
  MIC: > 100 µg/mL
[3]; [18]
  MIC: 0.8 µg/mL (≈ 2.64 µM)
[3]; [19]
  MIC: 0.8 µg/mL (≈ 2.64 µM)
[4]; pH 6.8, read-out: minimum inhibitory concentration (M.I.C.)
  MIC: 6.2 µg/mL (≈ 20.4 µM)
[4]; pH 7.3, read-out: minimum inhibitory concentration (M.I.C.)
  MIC: 1.6 µg/mL (≈ 5.27 µM)
[5]; [18]
  MIC: 6.2 µg/mL (≈ 20.4 µM)
[5]; [19]
  MIC: 1.6 µg/mL (≈ 5.27 µM)
[6]
  MIC: 1.64 µg/mL (≈ 5.41 µM)
[7]
  deaths: no deaths were observed
[8]
  toxic signs: without showing any toxic signs
[9]
  absorption: absorbed rapidly
  elimination: eliminated principally in the urine
[9]; even with low doses, majority of Gram negative microorganisms
  urinary concentrations relative to minimum inhibitory concentrations: very much greater than the minimum inhibitory concentrations
[10]
  urinary concentration at 7 hours relative to minimum inhibitory concentrations: still very much greater than the minimum inhibitory concentrations
[10]; po
  concentration at 3 h: 185 µg/mL
  concentration at 7 h: 90 µg/mL
[11]
  MIC: 6.22 µg/mL (≈ 20.5 µM)
[12]
  MIC: 12.5 µg/mL (≈ 41.1 µM)
[13]
  MIC: 75 µg/mL (≈ 247 µM)
[14]
  MIC: 12.5 µg/mL (≈ 41.2 µM)
[15]
  MIC: 13.7 µg/mL (≈ 45.3 µM)
[16]
  MIC: 1.2 µg/mL (≈ 3.96 µM)
[17]
  MIC: 1.58 µg/mL (≈ 5.21 µM)
